# Tested on: CKD stage 5 subjects on hemodialysis (HD) or peritoneal dialysis (PD)
# Test: Double-blind, placebo-controlled, multicenter studies of paricalcitol capsule in secondary hyperparathyroidism
# Assay type: in vivo, human
# Conditions: for duration of iPTH/PTH reduction: HD and PD subjects, 12-week treatment; for AE (adverse event) profile: versus placebo group
# Description: Paricalcitol capsule is an oral formulation of paricalcitol injection, a vitamin D analog effective in the prevention and treatment of SHPT associated with chronic renal failure. Three doubleblind, placebo-controlled, multicenter studies were conducted to evaluate the safety and efficacy of paricalcitol capsule in CKD stage 5 subjects on hemodialysis (HD) or peritoneal dialysis (PD). After a 4-8 week washout period, 225 subjects (HD: 150, PD: 75) with iPTH≧300 pg/mL, serum Ca 8.0-10.5 mg/dL and Ca×P04<65 were randomized (1:1) and treated with paricalcitol capsule or placebo 3× weekly for 12 weeks. Initial doses were based on iPTH levels at baseline (initial mcg dose=iPTH/60). Subsequent dose adjustments of 2 mcg were based on the weekly Ca, Ca×P04, and iPTH results; dose increases occurred every 2 weeks and decreases once per week.
structure (smiles),measurement,setting,value
C[C@H](/C=C/[C@H](C)C(C)(C)O)[C@H]1CC[C@H]2/C(=C/C=C3C[C@@H](O)C[C@H](O)C3)CCC[C@]12C [paricalcitol],subjects with 2 consecutive 30 decreases in iPTH,"95/105 subjects, capsule 3x weekly for 12 weeks, initial mcg dose = iPTH/60, p<0.001 vs placebo",90%
same,duration of iPTH/PTH reduction,,sustained throughout the treatment
same,duration of iPTH/PTH reduction,listed as paricalcitol capsule,sustained reduction of PTH
same,mean iPTH reduction,"by Week 3, 3x weekly dosing",30%
same,influence of subject factors on efficacy,"demographics, disease severity, baseline P04, phosphate binder type","not influenced by demographics, disease severity, baseline P04 or types of phosphate binder usage"
same,"mean serum P04, maximum value","increased initially to the maximum, then decreased",5.7 mg/dL
same,mean Ca,throughout 12-week treatment,under 10.0 mg/dL
same,AE (adverse event) profile,,comparable between the groups
same,AE (adverse event) profile,listed as paricalcitol capsule,comparable to placebo

# — patent US20060030549A1, “Paricalcitol(zemplar) capsule controls secondary hyperparathyroidism (SHPT) in CKD stage 5 patients” (priority 2003, published 2006)
